The values below come from ChEMBL document CHEMBL4184334, “From Cancer to Pain Target by Automated Selectivity Inversion of a Clinical Candidate” (J Med Chem, 2018).

Activity calls are given as the source filed them. The calls are words filed in the database; no cut-off is given here. A value given as a limit tells only on which side of the number the result lay.

Data set [1] deals with NT-3 growth factor receptor (Homo sapiens) (UniProt Q16288). Briefly: Inhibition of DNA-tagged human partial length TrkC expressed in mammalian expression system at 100 nM by qPCR method.
Sequence of NT-3 growth factor receptor (Homo sapiens) (Q16288 32-839 limits assumed): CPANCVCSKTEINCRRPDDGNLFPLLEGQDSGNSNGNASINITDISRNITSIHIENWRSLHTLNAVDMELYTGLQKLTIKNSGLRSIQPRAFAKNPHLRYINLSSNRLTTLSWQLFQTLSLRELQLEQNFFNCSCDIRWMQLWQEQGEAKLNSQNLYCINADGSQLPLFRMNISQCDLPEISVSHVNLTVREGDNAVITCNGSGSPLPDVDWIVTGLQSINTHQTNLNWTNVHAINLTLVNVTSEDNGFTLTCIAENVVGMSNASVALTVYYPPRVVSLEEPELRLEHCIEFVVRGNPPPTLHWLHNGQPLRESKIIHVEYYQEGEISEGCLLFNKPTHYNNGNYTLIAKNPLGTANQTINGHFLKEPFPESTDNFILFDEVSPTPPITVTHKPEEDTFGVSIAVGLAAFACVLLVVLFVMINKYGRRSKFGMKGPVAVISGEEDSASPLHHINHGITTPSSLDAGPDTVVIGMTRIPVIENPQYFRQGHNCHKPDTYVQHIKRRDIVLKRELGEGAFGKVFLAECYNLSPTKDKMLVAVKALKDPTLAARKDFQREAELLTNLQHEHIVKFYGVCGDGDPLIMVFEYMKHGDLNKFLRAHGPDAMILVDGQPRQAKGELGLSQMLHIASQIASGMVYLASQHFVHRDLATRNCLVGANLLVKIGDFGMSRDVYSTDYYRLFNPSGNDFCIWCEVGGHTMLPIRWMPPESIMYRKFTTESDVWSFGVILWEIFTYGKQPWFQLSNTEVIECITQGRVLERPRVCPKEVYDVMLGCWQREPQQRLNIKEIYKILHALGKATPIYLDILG
Data set [2] has as its target BDNF/NT-3 growth factors receptor (Homo sapiens) (UniProt Q16620). Nature of the data set: Inhibition of DNA-tagged human partial length TrkB expressed in mammalian expression system at 100 nM by qPCR method. In general terms: Quantitative PCR measures a nucleic acid by following its amplification.
The target in data set [3] is Platelet-derived growth factor receptor beta (Homo sapiens) (UniProt P09619). Nature of the data set: Inhibition of DNA-tagged human partial length PDGFRB expressed in mammalian expression system at 100 nM by qPCR method.
Sequence of Platelet-derived growth factor receptor beta (Homo sapiens) (P09619 whole entry): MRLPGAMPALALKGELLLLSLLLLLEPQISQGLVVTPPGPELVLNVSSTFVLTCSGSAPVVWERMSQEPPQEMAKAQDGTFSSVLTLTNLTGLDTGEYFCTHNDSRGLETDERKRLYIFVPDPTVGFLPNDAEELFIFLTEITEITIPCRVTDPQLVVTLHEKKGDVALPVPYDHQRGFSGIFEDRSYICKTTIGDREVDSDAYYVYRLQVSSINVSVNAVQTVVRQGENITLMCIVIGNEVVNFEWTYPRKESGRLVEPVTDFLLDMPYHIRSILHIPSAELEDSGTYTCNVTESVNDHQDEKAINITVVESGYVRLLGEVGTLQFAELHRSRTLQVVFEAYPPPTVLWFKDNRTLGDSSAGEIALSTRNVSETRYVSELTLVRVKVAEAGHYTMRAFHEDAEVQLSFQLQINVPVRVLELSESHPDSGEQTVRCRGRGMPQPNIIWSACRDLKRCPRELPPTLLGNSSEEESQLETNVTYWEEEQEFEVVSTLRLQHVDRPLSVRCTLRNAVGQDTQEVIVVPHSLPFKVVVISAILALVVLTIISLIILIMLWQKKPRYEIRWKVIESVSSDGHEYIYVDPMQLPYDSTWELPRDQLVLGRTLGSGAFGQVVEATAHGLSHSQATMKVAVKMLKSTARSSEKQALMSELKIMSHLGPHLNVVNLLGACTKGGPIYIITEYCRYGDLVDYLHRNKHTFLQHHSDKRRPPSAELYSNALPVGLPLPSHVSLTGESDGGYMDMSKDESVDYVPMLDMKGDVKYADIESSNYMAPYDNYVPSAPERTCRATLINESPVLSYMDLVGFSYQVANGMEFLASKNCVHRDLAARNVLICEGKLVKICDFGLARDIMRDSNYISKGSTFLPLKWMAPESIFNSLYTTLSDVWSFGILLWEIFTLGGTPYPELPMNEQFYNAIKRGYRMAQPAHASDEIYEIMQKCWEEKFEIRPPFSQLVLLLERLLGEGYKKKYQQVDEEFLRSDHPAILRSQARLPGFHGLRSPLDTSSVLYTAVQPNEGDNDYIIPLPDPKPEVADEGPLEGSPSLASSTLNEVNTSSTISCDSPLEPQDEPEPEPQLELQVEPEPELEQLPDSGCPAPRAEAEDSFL
The target of data set [4] is T1, Aurora kinase A (Homo sapiens, UniProt O14965).
T1 sequence (O14965 whole entry): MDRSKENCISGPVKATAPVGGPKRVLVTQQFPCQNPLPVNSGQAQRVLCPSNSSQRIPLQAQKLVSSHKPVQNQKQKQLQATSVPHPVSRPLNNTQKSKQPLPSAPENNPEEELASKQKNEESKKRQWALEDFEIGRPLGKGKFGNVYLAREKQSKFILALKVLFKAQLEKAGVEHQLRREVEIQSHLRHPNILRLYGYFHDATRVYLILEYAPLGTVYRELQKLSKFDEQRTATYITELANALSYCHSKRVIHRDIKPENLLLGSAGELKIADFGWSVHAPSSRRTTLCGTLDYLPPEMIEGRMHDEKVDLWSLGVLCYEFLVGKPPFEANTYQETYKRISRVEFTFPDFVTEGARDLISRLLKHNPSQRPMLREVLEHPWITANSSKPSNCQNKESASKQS
Nature of the data set: Inhibition of DNA-tagged human partial length AURKA expressed in mammalian expression system at 100 nM by qPCR method. Conditions: 0.1 µM.

The target in data set [5] is Proto-oncogene tyrosine-protein kinase receptor Ret (Homo sapiens) (UniProt P07949). Briefly: Inhibition of DNA-tagged human partial length RET expressed in bacterial expression system at 100 nM by qPCR method.
Sequence of Proto-oncogene tyrosine-protein kinase receptor Ret (Homo sapiens) (P07949 whole entry, the tested form may be a part): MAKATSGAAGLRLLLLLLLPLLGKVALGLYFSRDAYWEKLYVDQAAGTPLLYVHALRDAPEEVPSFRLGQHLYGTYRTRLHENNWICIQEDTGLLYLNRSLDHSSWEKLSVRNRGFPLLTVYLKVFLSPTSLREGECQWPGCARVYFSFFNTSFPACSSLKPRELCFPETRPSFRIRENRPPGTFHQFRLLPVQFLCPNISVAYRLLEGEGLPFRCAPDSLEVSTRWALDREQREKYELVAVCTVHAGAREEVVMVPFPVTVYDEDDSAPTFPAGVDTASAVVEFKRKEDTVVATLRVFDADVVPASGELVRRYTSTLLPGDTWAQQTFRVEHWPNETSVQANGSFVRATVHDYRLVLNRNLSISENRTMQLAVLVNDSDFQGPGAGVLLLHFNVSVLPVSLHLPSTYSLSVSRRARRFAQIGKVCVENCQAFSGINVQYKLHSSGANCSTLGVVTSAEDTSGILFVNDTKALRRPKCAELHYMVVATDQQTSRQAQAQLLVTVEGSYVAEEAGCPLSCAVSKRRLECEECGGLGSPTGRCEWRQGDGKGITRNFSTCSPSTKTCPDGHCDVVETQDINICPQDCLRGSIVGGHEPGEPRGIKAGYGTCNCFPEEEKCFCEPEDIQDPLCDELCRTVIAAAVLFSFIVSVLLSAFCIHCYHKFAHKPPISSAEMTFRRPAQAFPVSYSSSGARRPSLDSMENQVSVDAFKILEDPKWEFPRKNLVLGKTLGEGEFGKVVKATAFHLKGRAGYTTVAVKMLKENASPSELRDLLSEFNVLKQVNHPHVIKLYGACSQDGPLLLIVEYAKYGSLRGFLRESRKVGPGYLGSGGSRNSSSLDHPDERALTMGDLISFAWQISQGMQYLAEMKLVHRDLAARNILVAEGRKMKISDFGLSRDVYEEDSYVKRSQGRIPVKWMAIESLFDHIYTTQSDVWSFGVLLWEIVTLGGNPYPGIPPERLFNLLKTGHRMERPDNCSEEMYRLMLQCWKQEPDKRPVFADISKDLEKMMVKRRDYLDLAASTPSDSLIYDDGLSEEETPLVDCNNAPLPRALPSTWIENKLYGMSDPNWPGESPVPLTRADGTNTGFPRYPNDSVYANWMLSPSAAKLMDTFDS
The target in data set [6] is Tyrosine-protein kinase JAK2 (Homo sapiens, UniProt O60674). Nature of the data set: Inhibition of DNA-tagged human partial length JAK2 JH1 domain-catalytic expressed in mammalian expression system at 100 nM by qPCR method. Conditions: 0.1 µM.
For data set [7], the target named is Tyrosine-protein kinase ABL1 (Homo sapiens, UniProt P00519, T315I). Nature of the data set: Inhibition of DNA-tagged human phosphorylated partial length ABL1 T315I mutant expressed in mammalian expression system at 100 nM by qPCR method. Conditions: 0.1 µM.
Data set [8] has as its target Mast/stem cell growth factor receptor Kit (Homo sapiens) (UniProt P10721). Nature of the data set: Inhibition of DNA-tagged human partial length KIT expressed in bacterial expression system at 100 nM by qPCR method.
The species entered for data set [9] is Homo sapiens. Nature of the data set: Selectivity ratio of Kd for DNA-tagged human partial length AURKA to Kd for DNA-tagged human partial length TrkA.
In data set [10] the target is T2, Tyrosine-protein kinase JAK3 (Homo sapiens) (UniProt P52333).
T2 sequence (whole entry): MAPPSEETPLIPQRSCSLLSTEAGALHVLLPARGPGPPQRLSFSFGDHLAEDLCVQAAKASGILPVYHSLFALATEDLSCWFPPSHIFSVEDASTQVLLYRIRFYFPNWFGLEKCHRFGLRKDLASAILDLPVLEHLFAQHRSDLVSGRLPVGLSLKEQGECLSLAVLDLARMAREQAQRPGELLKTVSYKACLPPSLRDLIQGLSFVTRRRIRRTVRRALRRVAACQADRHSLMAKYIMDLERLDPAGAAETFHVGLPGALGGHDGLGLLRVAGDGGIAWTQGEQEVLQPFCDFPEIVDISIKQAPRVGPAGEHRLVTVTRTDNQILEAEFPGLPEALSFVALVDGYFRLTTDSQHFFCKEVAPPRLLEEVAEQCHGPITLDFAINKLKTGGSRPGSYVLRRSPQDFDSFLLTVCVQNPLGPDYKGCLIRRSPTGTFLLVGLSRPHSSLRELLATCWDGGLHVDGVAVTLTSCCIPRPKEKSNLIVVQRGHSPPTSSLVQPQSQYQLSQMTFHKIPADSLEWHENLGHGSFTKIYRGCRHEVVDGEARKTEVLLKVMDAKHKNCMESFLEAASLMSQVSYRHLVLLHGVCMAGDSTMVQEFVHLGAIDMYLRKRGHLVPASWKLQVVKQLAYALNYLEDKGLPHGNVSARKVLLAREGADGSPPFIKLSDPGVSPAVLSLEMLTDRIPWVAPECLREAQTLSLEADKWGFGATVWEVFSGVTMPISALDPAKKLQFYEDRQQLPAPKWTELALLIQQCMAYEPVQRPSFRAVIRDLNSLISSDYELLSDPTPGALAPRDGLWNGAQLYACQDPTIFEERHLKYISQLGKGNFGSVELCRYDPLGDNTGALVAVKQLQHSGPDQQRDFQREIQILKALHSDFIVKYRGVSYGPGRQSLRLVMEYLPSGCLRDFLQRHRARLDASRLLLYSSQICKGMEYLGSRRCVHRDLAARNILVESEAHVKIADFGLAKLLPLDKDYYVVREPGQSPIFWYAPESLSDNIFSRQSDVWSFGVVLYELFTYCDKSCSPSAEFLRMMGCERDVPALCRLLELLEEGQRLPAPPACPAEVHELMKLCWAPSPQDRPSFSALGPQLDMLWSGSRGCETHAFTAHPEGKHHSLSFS
Briefly: Inhibition of DNA-tagged human partial length JAK3 JH1 domain-catalytic expressed in mammalian expression system at 100 nM by qPCR method.

Data set [11] concerns the target High affinity nerve growth factor receptor (Homo sapiens) (UniProt P04629). Nature of the data set: Inhibition of DNA-tagged human partial length TrkA expressed in mammalian expression system assessed as remaining activity at 100 nM by qPCR method.
Data set [12] addresses Tyrosine-protein kinase ABL1 (Homo sapiens, UniProt P00519). Nature of the data set: Inhibition of DNA-tagged human nonphosphorylated partial length ABL1 expressed in mammalian expression system at 100 nM by qPCR method. Conditions: 0.1 µM.

Sequence of BDNF/NT-3 growth factors receptor (Homo sapiens) (Q16620 32-822 limits assumed): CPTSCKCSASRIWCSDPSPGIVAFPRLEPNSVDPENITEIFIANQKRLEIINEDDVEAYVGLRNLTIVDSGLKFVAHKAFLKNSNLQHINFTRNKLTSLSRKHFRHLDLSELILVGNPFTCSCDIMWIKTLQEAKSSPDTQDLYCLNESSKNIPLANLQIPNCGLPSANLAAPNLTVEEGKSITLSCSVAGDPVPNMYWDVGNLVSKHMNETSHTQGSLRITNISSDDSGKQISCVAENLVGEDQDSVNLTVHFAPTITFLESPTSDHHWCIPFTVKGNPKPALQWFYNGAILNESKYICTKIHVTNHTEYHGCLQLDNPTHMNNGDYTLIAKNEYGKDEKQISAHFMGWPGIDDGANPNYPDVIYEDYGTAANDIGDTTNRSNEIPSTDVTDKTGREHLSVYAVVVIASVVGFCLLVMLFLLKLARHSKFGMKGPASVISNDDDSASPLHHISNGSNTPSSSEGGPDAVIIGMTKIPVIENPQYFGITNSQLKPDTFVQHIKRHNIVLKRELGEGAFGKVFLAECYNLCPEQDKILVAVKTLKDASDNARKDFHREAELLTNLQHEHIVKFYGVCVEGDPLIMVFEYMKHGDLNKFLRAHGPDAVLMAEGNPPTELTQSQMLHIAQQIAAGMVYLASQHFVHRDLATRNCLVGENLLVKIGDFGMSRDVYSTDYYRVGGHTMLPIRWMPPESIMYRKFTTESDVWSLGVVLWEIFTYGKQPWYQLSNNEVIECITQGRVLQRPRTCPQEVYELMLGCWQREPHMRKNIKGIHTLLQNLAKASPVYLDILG
Sequence of Mast/stem cell growth factor receptor Kit (Homo sapiens) (P10721 whole entry): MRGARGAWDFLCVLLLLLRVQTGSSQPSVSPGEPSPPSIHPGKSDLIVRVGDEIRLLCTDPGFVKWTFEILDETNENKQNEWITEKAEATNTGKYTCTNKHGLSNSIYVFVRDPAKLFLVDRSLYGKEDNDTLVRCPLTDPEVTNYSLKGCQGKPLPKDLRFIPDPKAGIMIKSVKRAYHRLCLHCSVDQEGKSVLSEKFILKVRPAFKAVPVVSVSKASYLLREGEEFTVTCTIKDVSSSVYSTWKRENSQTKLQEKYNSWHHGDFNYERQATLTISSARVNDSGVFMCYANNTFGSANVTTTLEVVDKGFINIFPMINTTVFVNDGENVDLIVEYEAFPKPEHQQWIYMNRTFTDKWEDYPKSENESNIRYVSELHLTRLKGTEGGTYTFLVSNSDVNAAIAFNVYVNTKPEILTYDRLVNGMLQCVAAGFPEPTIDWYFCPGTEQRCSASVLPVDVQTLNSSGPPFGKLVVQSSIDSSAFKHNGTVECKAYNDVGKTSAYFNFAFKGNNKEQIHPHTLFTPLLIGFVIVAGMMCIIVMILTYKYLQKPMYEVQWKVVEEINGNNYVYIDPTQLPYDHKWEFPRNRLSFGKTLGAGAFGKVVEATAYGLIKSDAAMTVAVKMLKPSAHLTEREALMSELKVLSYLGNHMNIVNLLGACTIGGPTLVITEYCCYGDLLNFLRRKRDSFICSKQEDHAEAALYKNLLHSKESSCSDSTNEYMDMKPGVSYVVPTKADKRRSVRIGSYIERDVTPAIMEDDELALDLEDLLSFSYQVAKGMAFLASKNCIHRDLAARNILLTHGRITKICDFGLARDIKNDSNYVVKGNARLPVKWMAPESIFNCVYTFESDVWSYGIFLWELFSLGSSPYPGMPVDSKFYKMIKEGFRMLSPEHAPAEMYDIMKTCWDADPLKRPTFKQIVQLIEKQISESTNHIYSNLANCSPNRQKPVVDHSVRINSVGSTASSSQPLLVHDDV

On to `Cc1ccc(CSc2nc(Nc3cc(C)[nH]n3)cc(N3CCN(C)CC3)n2)cc1`, for which the inhibition entry in data set [1], in data set [2] and in [3] was “inactive” throughout.

Consider `CN1CCN(c2cc(Nc3cc(C(C)(C)C)[nH]n3)nc(Sc3ccccc3)n2)CC1`, for which, in [4], the “inhibition (INH)” value is listed as “Not Active”.

Turning to `Cc1cc(Nc2cc(N3CCN(C)CC3)nc(Sc3ccc(NC(=O)C4CC4)cc3)n2)n[nH]1`, the inhibition entry in [5] is “Active”.

In the case of `CN1CCN(c2cc(Nc3cc(-c4cccc(F)c4)[nH]n3)nc(Sc3ccccc3)n2)CC1`, the “inhibition (INH)” value in [6], in data set [7] and in data set [12] was “Not Active” each time. In addition, the inhibition entry in [8], in [1], in [2], in [5] and in [3] was “Active” throughout. Also, in data set [9], the Selectivity ratio was 1000. The inhibition result in [10] is “inactive”. The Activity in data set [11] is under 1%.
